Assay results reported in patent US8772480B2, “Inhibitors of PI3 kinase and/or mTOR” (priority 2009, dated 2014).

Tests used:
Type in all cases: biochemical
[1] = biological target: ProfilerPro Kinase Selectivity Assay Kit kinases (Homo sapiens, UniProt P06239); conditions: LCK; 1 μM compound concentration
[2] = biological target: ProfilerPro Kinase Selectivity Assay Kit kinases (Homo sapiens, UniProt P31751); conditions: AKT2; 1 μM compound concentration
[3] = biological target: ProfilerPro Kinase Selectivity Assay Kit kinases (Homo sapiens, UniProt Q06187); conditions: BTK; 1 μM compound concentration
[4] = biological target: ProfilerPro Kinase Selectivity Assay Kit kinases (Homo sapiens, UniProt P06213); conditions: INSR; 1 μM compound concentration
[5] = biological target: ProfilerPro Kinase Selectivity Assay Kit kinases (Homo sapiens, UniProt P49137); conditions: MAPKAPK2; 1 μM compound concentration
[6] = biological target: ProfilerPro Kinase Selectivity Assay Kit kinases (Homo sapiens, UniProt P08069); conditions: IGF1R; 1 μM compound concentration
[7] = biological target: ProfilerPro Kinase Selectivity Assay Kit kinases (Homo sapiens, UniProt O75116); conditions: ROCK2; 1 μM compound concentration
[8] = biological target: ProfilerPro Kinase Selectivity Assay Kit kinases (Homo sapiens, UniProt Q9P0L2); conditions: MARK1; 1 μM compound concentration
[9] = biological target: ProfilerPro Kinase Selectivity Assay Kit kinases (Homo sapiens, UniProt P31749); conditions: AKT1; 1 μM compound concentration
[10] = biological target: ProfilerPro Kinase Selectivity Assay Kit kinases (Homo sapiens, UniProt P12931); conditions: SRC; 1 μM compound concentration
[11] = biological target: ProfilerPro Kinase Selectivity Assay Kit kinases (Homo sapiens, UniProt P36888); conditions: FLT3; 1 μM compound concentration
[12] = biological target: ProfilerPro Kinase Selectivity Assay Kit kinases (Homo sapiens, UniProt O14965); conditions: AURORA A; 1 μM compound concentration
[13] = biological target: ProfilerPro Kinase Selectivity Assay Kit kinases (Homo sapiens, UniProt Q13188); conditions: MST2; 1 μM compound concentration
[14] = biological target: ProfilerPro Kinase Selectivity Assay Kit kinases (Homo sapiens, UniProt O95819); conditions: HGK; 1 μM compound concentration
[15] = biological target: ProfilerPro Kinase Selectivity Assay Kit kinases (Homo sapiens, UniProt P17612); conditions: PKA alpha; 1 μM compound concentration
[16] = biological target: ProfilerPro Kinase Selectivity Assay Kit kinases (Homo sapiens, UniProt O96017); conditions: CHK2; 1 μM compound concentration
[17] = biological target: ProfilerPro Kinase Selectivity Assay Kit kinases (Homo sapiens, UniProt Q15418); conditions: RSK1; 1 μM compound concentration
[18] = biological target: ProfilerPro Kinase Selectivity Assay Kit kinases (Homo sapiens, UniProt Q16566); conditions: CAMK4; 1 μM compound concentration
[19] = biological target: ProfilerPro Kinase Selectivity Assay Kit kinases (Homo sapiens, UniProt P24941); conditions: CDK2; 1 μM compound concentration
[20] = biological target: ProfilerPro Kinase Selectivity Assay Kit kinases (Homo sapiens, UniProt P06241); conditions: FYN; 1 μM compound concentration
[21] = biological target: ProfilerPro Kinase Selectivity Assay Kit kinases (Homo sapiens, UniProt Q13627); conditions: DYRK1a; 1 μM compound concentration
[22] = biological target: ProfilerPro Kinase Selectivity Assay Kit kinases (Homo sapiens, UniProt P28482); conditions: ERK2; 1 μM compound concentration
[23] = biological target: ProfilerPro Kinase Selectivity Assay Kit kinases (Homo sapiens, UniProt O14757); conditions: CHK1; 1 μM compound concentration
[24] = biological target: ProfilerPro Kinase Selectivity Assay Kit kinases (Homo sapiens, UniProt Q9P1W9); conditions: PIM2; 1 μM compound concentration
[25] = biological target: ProfilerPro Kinase Selectivity Assay Kit kinases (Homo sapiens, UniProt P07948); conditions: LYN; 1 μM compound concentration
[26] = biological target: ProfilerPro Kinase Selectivity Assay Kit kinases (Homo sapiens, UniProt Q13177); conditions: PAK2; 1 μM compound concentration
[27] = biological target: ProfilerPro Kinase Selectivity Assay Kit kinases (Homo sapiens, UniProt P35968); conditions: KDR; 1 μM compound concentration
[28] = biological target: ProfilerPro Kinase Selectivity Assay Kit kinases (Homo sapiens, UniProt P43405); conditions: SYK; 1 μM compound concentration
[29] = biological target: ProfilerPro Kinase Selectivity Assay Kit kinases (Homo sapiens, UniProt Q05513); conditions: PKC zeta; 1 μM compound concentration
[30] = biological target: ProfilerPro Kinase Selectivity Assay Kit kinases (Homo sapiens, UniProt Q8IW41); conditions: PRAK; 1 μM compound concentration
[31] = biological target: ProfilerPro Kinase Selectivity Assay Kit kinases (Homo sapiens, UniProt P48730); conditions: CK1 delta; 1 μM compound concentration

Chain of ProfilerPro Kinase Selectivity Assay Kit kinases (Homo sapiens, UniProt Q13177) (Q13177 2-524 limits assumed): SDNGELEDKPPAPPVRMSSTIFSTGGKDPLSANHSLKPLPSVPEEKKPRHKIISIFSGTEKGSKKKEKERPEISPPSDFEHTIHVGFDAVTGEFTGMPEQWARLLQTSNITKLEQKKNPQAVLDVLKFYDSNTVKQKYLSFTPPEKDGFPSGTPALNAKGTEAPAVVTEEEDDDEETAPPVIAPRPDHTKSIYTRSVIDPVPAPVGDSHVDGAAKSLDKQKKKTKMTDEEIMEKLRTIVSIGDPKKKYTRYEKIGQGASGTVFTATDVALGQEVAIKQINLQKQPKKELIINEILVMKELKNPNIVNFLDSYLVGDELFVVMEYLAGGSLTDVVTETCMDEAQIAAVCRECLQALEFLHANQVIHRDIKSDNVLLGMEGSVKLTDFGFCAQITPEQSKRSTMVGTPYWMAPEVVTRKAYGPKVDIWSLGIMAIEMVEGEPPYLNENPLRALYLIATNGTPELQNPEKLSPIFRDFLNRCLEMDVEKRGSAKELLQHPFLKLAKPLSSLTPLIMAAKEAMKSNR
Chain of ProfilerPro Kinase Selectivity Assay Kit kinases (Homo sapiens, UniProt P36888) (P36888 27-993 limits assumed): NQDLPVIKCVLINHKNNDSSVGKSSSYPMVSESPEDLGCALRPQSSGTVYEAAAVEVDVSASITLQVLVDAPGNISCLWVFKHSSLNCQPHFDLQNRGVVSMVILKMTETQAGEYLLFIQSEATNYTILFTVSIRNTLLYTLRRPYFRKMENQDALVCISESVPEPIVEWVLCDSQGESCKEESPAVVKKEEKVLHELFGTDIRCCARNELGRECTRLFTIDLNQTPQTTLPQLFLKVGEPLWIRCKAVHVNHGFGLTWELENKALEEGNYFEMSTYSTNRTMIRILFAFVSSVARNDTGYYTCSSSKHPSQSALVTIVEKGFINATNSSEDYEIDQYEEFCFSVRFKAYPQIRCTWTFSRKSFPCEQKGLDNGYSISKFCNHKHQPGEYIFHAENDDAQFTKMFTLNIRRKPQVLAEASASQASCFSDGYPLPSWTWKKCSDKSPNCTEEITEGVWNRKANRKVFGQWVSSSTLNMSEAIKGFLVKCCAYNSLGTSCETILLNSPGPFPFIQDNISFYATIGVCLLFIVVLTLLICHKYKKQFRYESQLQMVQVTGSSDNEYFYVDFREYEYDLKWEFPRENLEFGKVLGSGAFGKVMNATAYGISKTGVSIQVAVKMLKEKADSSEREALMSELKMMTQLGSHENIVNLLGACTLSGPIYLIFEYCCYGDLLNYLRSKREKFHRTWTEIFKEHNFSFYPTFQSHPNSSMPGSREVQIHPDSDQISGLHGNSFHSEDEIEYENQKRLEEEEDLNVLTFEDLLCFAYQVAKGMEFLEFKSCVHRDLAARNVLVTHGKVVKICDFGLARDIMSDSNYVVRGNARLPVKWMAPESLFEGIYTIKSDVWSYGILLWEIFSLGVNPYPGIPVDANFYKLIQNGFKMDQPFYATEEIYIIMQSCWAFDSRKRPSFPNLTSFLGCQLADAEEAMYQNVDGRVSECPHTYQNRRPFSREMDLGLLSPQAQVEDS
Chain of ProfilerPro Kinase Selectivity Assay Kit kinases (Homo sapiens, UniProt P12931) (P12931 2-536 limits assumed): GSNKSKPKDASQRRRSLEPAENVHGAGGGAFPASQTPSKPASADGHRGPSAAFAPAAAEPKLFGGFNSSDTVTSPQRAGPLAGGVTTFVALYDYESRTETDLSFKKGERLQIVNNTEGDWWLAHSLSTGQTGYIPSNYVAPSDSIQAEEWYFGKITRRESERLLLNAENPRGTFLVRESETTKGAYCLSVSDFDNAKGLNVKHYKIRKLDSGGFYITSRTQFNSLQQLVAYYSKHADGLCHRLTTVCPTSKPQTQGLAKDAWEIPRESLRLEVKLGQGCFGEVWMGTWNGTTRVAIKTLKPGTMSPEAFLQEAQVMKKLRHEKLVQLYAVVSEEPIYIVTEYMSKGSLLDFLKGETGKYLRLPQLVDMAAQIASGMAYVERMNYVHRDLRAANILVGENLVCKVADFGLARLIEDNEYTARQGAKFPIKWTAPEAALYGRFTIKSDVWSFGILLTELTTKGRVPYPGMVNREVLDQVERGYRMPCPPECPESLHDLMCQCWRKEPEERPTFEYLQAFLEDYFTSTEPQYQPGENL
Chain of ProfilerPro Kinase Selectivity Assay Kit kinases (Homo sapiens, UniProt O95819) (O95819 2-1239 limits assumed): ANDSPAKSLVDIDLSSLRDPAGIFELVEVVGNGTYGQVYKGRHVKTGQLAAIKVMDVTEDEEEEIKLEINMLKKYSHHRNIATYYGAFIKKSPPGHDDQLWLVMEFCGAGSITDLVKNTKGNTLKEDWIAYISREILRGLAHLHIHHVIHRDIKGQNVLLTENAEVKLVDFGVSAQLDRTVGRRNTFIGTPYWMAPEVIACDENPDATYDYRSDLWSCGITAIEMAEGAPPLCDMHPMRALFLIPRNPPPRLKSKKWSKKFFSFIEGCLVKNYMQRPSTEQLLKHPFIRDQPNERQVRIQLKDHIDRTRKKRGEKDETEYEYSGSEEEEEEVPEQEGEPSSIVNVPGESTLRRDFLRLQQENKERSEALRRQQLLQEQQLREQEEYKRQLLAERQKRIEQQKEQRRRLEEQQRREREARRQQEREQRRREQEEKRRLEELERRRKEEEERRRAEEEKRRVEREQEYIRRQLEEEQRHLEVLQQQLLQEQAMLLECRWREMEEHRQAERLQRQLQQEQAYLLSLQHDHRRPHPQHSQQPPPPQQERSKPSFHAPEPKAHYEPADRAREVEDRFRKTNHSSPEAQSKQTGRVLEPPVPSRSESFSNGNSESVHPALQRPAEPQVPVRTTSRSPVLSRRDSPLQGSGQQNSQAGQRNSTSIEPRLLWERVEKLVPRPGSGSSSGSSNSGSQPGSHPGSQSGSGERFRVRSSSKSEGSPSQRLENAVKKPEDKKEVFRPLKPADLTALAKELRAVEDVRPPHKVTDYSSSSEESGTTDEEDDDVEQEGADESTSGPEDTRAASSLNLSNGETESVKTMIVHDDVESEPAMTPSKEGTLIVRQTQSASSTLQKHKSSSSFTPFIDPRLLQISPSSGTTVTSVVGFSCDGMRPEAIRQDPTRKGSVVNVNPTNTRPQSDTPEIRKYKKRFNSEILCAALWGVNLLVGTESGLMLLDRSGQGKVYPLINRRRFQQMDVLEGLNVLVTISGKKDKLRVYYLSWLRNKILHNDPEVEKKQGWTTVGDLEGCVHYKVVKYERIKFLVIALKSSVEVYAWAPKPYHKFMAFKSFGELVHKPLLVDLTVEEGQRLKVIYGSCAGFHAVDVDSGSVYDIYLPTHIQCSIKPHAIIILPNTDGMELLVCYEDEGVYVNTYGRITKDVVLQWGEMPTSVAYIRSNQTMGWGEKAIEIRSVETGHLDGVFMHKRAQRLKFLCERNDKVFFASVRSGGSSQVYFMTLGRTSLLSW
Chain of ProfilerPro Kinase Selectivity Assay Kit kinases (Homo sapiens, UniProt Q06187) (Q06187 2-659 limits assumed): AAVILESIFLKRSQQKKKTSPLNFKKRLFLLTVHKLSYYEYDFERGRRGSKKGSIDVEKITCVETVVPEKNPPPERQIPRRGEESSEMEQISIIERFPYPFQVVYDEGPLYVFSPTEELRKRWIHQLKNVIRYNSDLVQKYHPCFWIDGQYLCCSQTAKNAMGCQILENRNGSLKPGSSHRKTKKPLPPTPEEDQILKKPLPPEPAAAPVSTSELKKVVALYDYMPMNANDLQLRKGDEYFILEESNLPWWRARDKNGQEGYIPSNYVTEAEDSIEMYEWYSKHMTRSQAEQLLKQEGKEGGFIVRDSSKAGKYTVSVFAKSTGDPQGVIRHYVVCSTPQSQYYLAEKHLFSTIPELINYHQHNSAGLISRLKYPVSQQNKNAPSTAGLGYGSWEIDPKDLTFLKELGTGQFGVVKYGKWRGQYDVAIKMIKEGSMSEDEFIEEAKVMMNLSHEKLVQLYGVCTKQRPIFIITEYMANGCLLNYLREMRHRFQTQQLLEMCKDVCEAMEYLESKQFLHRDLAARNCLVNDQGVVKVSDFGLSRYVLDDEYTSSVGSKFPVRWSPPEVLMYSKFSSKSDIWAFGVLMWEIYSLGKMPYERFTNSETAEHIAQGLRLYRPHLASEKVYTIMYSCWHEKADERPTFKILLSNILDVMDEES
Chain of ProfilerPro Kinase Selectivity Assay Kit kinases (Homo sapiens, UniProt P07948) (P07948 2-512 limits assumed): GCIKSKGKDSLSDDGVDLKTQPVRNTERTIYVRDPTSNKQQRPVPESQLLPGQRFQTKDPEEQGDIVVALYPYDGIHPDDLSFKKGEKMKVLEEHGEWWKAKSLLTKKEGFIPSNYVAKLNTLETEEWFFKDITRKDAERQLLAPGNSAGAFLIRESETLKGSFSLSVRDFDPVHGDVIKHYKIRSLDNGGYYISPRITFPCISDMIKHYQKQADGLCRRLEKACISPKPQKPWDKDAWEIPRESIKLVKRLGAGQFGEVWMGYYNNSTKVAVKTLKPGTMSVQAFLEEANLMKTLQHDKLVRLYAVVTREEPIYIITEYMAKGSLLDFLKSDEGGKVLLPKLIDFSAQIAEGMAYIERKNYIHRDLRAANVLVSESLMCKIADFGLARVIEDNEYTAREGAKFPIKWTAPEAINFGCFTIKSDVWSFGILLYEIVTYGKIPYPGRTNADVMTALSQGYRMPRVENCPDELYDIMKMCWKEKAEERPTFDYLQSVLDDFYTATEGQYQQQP
Chain of ProfilerPro Kinase Selectivity Assay Kit kinases (Homo sapiens, UniProt P28482) (P28482 2-360 limits assumed): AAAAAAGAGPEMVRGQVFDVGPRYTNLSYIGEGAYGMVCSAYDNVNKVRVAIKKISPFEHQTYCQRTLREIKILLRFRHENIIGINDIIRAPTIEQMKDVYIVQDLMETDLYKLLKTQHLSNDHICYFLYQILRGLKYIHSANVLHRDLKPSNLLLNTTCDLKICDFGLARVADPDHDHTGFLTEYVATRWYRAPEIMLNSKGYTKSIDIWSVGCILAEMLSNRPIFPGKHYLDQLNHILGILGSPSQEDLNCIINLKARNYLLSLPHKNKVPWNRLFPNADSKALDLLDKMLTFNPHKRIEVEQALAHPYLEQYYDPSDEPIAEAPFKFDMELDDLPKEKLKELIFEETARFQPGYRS

POC (Percent of control) LCK [1] [POC] | POC (Percent of control) AKT2 [2] [POC] | POC (Percent of control) BTK [3] [POC] | POC (Percent of control) INSR [4] [POC] | POC (Percent of control) MAPKAPK2 [5] [POC] | POC (Percent of control) IGF1R [6] [POC] | POC (Percent of control) ROCK2 [7] [POC] | POC (Percent of control) MARK1 [8] [POC] | POC (Percent of control) AKT1 [9] [POC] | POC (Percent of control) SRC [10] [POC] | POC (Percent of control) FLT3 [11] [POC] | POC (Percent of control) AURORA A [12] [POC] | POC (Percent of control) MST2 [13] [POC] | POC (Percent of control) HGK [14] [POC] | POC (Percent of control) PKA alpha [15] [POC] | POC (Percent of control) CHK2 [16] [POC] | POC (Percent of control) RSK1 [17] [POC] | POC (Percent of control) CAMK4 [18] [POC] | POC (Percent of control) CDK2 [19] [POC] | POC (Percent of control) FYN [20] [POC] | SMILES | other results
96 | 110 | 98 | 98 | 98 | 78 | 94 | 102 | 93 | 96 | 99 | 31 | 96 | 104 | 102 | 101 | 100 | 96 | 97 | 101 | Cc1cnc(Nc2cccc3[nH]ccc23)c(-c2nc(C)nc(N)n2)c1 [Example 46, N-(3-(4-Amino-6-Methyl-1,3,5-Triazin-2-yl)-5-Methylpyridin-2-yl)-1H-Indol-4-Amine] | POC (Percent of control) DYRK1a [21]: 96 POC; POC (Percent of control) ERK2 [22]: 116 POC; POC (Percent of control) CHK1 [23]: 98 POC; POC (Percent of control) PIM2 [24]: 99 POC; POC (Percent of control) LYN [25]: 96 POC; POC (Percent of control) PAK2 [26]: 95 POC; POC (Percent of control) KDR [27]: 90 POC; POC (Percent of control) SYK [28]: 104 POC; POC (Percent of control) PKC zeta [29]: 198 POC; POC (Percent of control) PRAK [30]: 111 POC; POC (Percent of control) CK1 delta [31]: 91 POC
98 | 96 | 102 | 104 | 96 | 92 | 100 | 146 | 106 | 102 | 112 | 94 | 100 | 104 | 96 | 99 | 94 | 95 | 99 | 103 | COc1ccc(Nc2ncccc2-c2nc(C)nc3[nH]cnc23)cn1 [Example 58, N-(6-methoxypyridin-3-yl)-3-(2-methyl-9H-purin-6-yl)pyridin-2-amine] | POC (Percent of control) DYRK1a [21]: 93 POC; POC (Percent of control) ERK2 [22]: 103 POC; POC (Percent of control) CHK1 [23]: 101 POC; POC (Percent of control) PIM2 [24]: 94 POC; POC (Percent of control) LYN [25]: 100 POC; POC (Percent of control) PAK2 [26]: 102 POC; POC (Percent of control) KDR [27]: 93 POC; POC (Percent of control) SYK [28]: 86 POC; POC (Percent of control) PKC zeta [29]: 142 POC; POC (Percent of control) PRAK [30]: 84 POC; POC (Percent of control) CK1 delta [31]: 104 POC
70 | 110 | 75 | 88 | 90 | 94 | 104 | 95 | 94 | 23 | 25 | 24 | 82 | 50 | 70 | 18 | 87 | 77 | 90 | 33 | c1cnc(Nc2cccc3[nH]ccc23)c(-c2ncnc3[nH]cnc23)c1 [Example 19, N-(3-(9H-Purin-6-yl)Pyridin-2-yl)-1H-Indol-4-Amine] | POC (Percent of control) DYRK1a [21]: 66 POC; POC (Percent of control) ERK2 [22]: 94 POC; POC (Percent of control) CHK1 [23]: 83 POC; POC (Percent of control) PIM2 [24]: 105 POC; POC (Percent of control) LYN [25]: 50 POC; POC (Percent of control) PAK2 [26]: 105 POC; POC (Percent of control) KDR [27]: 29 POC; POC (Percent of control) SYK [28]: 15 POC; POC (Percent of control) PKC zeta [29]: 98 POC; POC (Percent of control) PRAK [30]: 84 POC; POC (Percent of control) CK1 delta [31]: 72 POC

SMILES | POC (Percent of control) LCK [1] [POC] | POC (Percent of control) AKT2 [2] [POC] | POC (Percent of control) BTK [3] [POC] | POC (Percent of control) INSR [4] [POC] | POC (Percent of control) MAPKAPK2 [5] [POC] | POC (Percent of control) IGF1R [6] [POC] | POC (Percent of control) ROCK2 [7] [POC] | POC (Percent of control) MARK1 [8] [POC] | POC (Percent of control) AKT1 [9] [POC] | POC (Percent of control) SRC [10] [POC] | POC (Percent of control) FLT3 [11] [POC] | POC (Percent of control) AURORA A [12] [POC] | POC (Percent of control) MST2 [13] [POC] | POC (Percent of control) HGK [14] [POC] | POC (Percent of control) PKA alpha [15] [POC] | POC (Percent of control) CHK2 [16] [POC] | POC (Percent of control) RSK1 [17] [POC] | POC (Percent of control) CAMK4 [18] [POC] | POC (Percent of control) CDK2 [19] [POC] | POC (Percent of control) FYN [20] [POC] | other results
COc1ccc(Nc2ncccc2-c2ncnc3[nH]cnc23)cn1 [Example 20, N-(6-Methoxypyridin-3-yl)-3-(9H-Purin-6-yl)Pyridin-2-Amine] | 101 | 92 | 98 | 97 | 100 | 93 | 101 | 108 | 105 | 95 | 120 | 96 | 95 | 94 | 97 | 103 | 97 | 100 | 96 | 101 | POC (Percent of control) DYRK1a [21]: 102 POC; POC (Percent of control) ERK2 [22]: 101 POC; POC (Percent of control) CHK1 [23]: 104 POC; POC (Percent of control) PIM2 [24]: 105 POC; POC (Percent of control) LYN [25]: 92 POC; POC (Percent of control) PAK2 [26]: 103 POC; POC (Percent of control) KDR [27]: 93 POC; POC (Percent of control) SYK [28]: 107 POC; POC (Percent of control) PKC zeta [29]: 99 POC; POC (Percent of control) PRAK [30]: 99 POC; POC (Percent of control) CK1 delta [31]: 93 POC
